From ChEMBL document CHEMBL1201862, “PubChem BioAssay data set” (2004)
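96-well plates; 48 h exposure; 5 concentrations. Endpoints by linear interpolation between flanking doses. Not reached: highest tested concentration assigned. GI50: concentration for 50% inhibition of growth.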 The source made the active and inactive calls. Cut-off read from the data, not from the text of the source: active = GI50 up to about 1.1 µM and inactive = higher.

How the values were obtained:
Assay in all cases: DTP human tumour cell line panel, 48 h
NCI-H23 = tested on: NCI-H23
EKVX = tested on: EKVX
MDA-N = tested on: MDA-N
A498 = tested on: A498
MDA-MB-435 = tested on: MDA-MB-435
SF-539 = tested on: SF-539
SR = tested on: SR
SW-620 = tested on: SW-620
Malme-3M = tested on: Malme-3M
HT-29 = tested on: HT-29
LOX IMVI = tested on: LOX IMVI
SF-268 = tested on: SF-268
SK-OV-3 = tested on: SK-OV-3
HCT-15 = tested on: HCT-15
U-251 = tested on: U-251
KM12 = tested on: KM12
UACC-257 = tested on: UACC-257
HL-60 = tested on: HL-60
SN12C = tested on: SN12C
HCC 2998 = tested on: HCC 2998

| SMILES | GI50 (NCI-H23) | GI50 (EKVX) | GI50 (MDA-N) | GI50 (A498) | GI50 (MDA-MB-435) | GI50 (SF-539) | GI50 (SR) | GI50 (SW-620) | GI50 (Malme-3M) | GI50 (HT-29) | GI50 (LOX IMVI) | GI50 (SF-268) | GI50 (SK-OV-3) | GI50 (HCT-15) [µM] | GI50 (U-251) | GI50 (KM12) | GI50 (UACC-257) | GI50 (HL-60) | GI50 (SN12C) | GI50 (HCC 2998) |
| --- | --- | --- | --- | --- | --- | --- | --- | --- | --- | --- | --- | --- | --- | --- | --- | --- | --- | --- | --- | --- |
| S=C(S)NCCCn1ccnc1 | > 100 µM (inactive) | > 100 µM (inactive) | > 100 µM (inactive) | > 100 µM (inactive) | > 100 µM (inactive) | > 100 µM (inactive) | > 100 µM (inactive) | > 100 µM (inactive) | > 100 µM (inactive) | > 100 µM (inactive) | > 100 µM (inactive) | > 100 µM (inactive) | > 100 µM (inactive) | > 100 | > 100 µM (inactive) | > 100 µM (inactive) | > 100 µM (inactive) | > 100 µM (inactive) | > 100 µM (inactive) |  |
| O=C1Nc2ccc(S(=O)(=O)N(CCO)CCO)cc2/C1=C1/Nc2ccccc2C1=O | > 100 µM (inactive) | > 100 µM (inactive) | > 100 µM (inactive) | > 100 µM (inactive) | > 100 µM (inactive) |  | 1.91 µM (inactive) | > 100 µM (inactive) | > 100 µM (inactive) | > 100 µM (inactive) | > 100 µM (inactive) | > 100 µM (inactive) | > 100 µM (inactive) | > 100 | 96.6 µM (inactive) | 17.7 µM (inactive) | > 100 µM (inactive) |  | > 100 µM (inactive) | > 100 µM (inactive) |
| COCN1C(=O)[C@@H]2CCCN2C(=O)c2cc(Cl)ccc21 | > 100 µM (inactive) | > 100 µM (inactive) | > 100 µM (inactive) | > 100 µM (inactive) | > 100 µM (inactive) |  | > 100 µM (inactive) | > 100 µM (inactive) | > 100 µM (inactive) | > 100 µM (inactive) | > 100 µM (inactive) | > 100 µM (inactive) | > 100 µM (inactive) | > 100 | > 100 µM (inactive) | > 100 µM (inactive) | > 100 µM (inactive) |  | > 100 µM (inactive) | > 100 µM (inactive) |
| CCOC(=O)/C=C/[C@H](O[Si](CC)(CC)CC)C(C)(C)C | > 100 µM (inactive) | 40.5 µM (inactive) | 78.2 µM (inactive) | > 100 µM (inactive) | 59 µM (inactive) | > 100 µM (inactive) | 22.7 µM (inactive) | 40.7 µM (inactive) | > 100 µM (inactive) | 34.1 µM (inactive) | 21.5 µM (inactive) | > 100 µM (inactive) | > 100 µM (inactive) | 41.5 | 27.4 µM (inactive) | > 100 µM (inactive) | 31 µM (inactive) |  | 39 µM (inactive) | 57.3 µM (inactive) |
| COC(=O)c1c(O)c(C#N)c2[nH]c3ccccc3n2c1=O | > 100 µM (inactive) | > 100 µM (inactive) | > 100 µM (inactive) | > 100 µM (inactive) | > 100 µM (inactive) | > 100 µM (inactive) | > 100 µM (inactive) | > 100 µM (inactive) | > 100 µM (inactive) | > 100 µM (inactive) |  | > 100 µM (inactive) | > 100 µM (inactive) | > 100 | > 100 µM (inactive) | > 100 µM (inactive) | > 100 µM (inactive) | > 100 µM (inactive) | > 100 µM (inactive) | > 100 µM (inactive) |
| C[C@]12CCC3c4ccc(O)cc4CC[C@H]3C1CC(=O)N(N)C2=O (some centres not stated) | > 100 µM (inactive) | 64.7 µM (inactive) | > 100 µM (inactive) | > 100 µM (inactive) | > 100 µM (inactive) | > 100 µM (inactive) | > 100 µM (inactive) | > 100 µM (inactive) | > 100 µM (inactive) | > 100 µM (inactive) |  | > 100 µM (inactive) | > 100 µM (inactive) |  | > 100 µM (inactive) | > 100 µM (inactive) | > 100 µM (inactive) | > 100 µM (inactive) | > 100 µM (inactive) | > 100 µM (inactive) |
| CC(C)(C)OC(=O)NCC(c1c[nH]c2ccccc12)c1c[nH]c2ccccc12 | 18.4 µM (inactive) | 12.7 µM (inactive) | 17.5 µM (inactive) | > 100 µM (inactive) | 15.7 µM (inactive) | 17.7 µM (inactive) | 14.9 µM (inactive) | 17 µM (inactive) | 17.7 µM (inactive) | 15.1 µM (inactive) | 17.9 µM (inactive) | 17.1 µM (inactive) | 16.8 µM (inactive) | 20.8 | 16.1 µM (inactive) | 13.3 µM (inactive) | 15.1 µM (inactive) | 14.4 µM (inactive) | 16.7 µM (inactive) |  |
| CC(C)C1CNC(=O)C2(/C=N/C(C(C)C)CNC(=O)C3(/C=N/1)CCCO3)CCCO2 (configuration not stated) | > 10 µM (inactive) | > 10 µM (inactive) | > 10 µM (inactive) | > 10 µM (inactive) | > 10 µM (inactive) | > 10 µM (inactive) | > 10 µM (inactive) | > 10 µM (inactive) | > 10 µM (inactive) | > 10 µM (inactive) |  | > 10 µM (inactive) | > 10 µM (inactive) | > 10 | > 10 µM (inactive) | > 10 µM (inactive) | > 10 µM (inactive) | > 10 µM (inactive) | > 10 µM (inactive) | > 10 µM (inactive) |
| COc1ccc(N2C(=O)/C(=C/c3ccc(N(CCC#N)CCC#N)cc3)N=C2c2ccccc2)cc1 |  | > 100 µM (inactive) | > 100 µM (inactive) | > 100 µM (inactive) | > 100 µM (inactive) | > 100 µM (inactive) | > 100 µM (inactive) | > 100 µM (inactive) | > 100 µM (inactive) | > 100 µM (inactive) | > 100 µM (inactive) | > 100 µM (inactive) | > 100 µM (inactive) | > 100 | > 100 µM (inactive) | > 100 µM (inactive) | > 100 µM (inactive) | > 100 µM (inactive) | > 100 µM (inactive) |  |
| Nc1c(Cl)c([N+](=O)[O-])cc2c1OCCCCO2 | > 100 µM (inactive) | 61.8 µM (inactive) | > 100 µM (inactive) |  | > 100 µM (inactive) | > 100 µM (inactive) | > 100 µM (inactive) | > 100 µM (inactive) | > 100 µM (inactive) | > 100 µM (inactive) | 61.4 µM (inactive) | > 100 µM (inactive) | 18.3 µM (inactive) | > 100 | 3.9 µM (inactive) | > 100 µM (inactive) | > 100 µM (inactive) | > 100 µM (inactive) | > 100 µM (inactive) | > 100 µM (inactive) |
| CN1C(=O)C23CCCC2CC1(c1ccccc1)S3 (configuration not stated) | > 100 µM (inactive) | > 100 µM (inactive) | > 100 µM (inactive) | > 100 µM (inactive) | > 100 µM (inactive) | > 100 µM (inactive) | > 100 µM (inactive) | > 100 µM (inactive) | > 100 µM (inactive) | > 100 µM (inactive) | > 100 µM (inactive) | > 100 µM (inactive) | > 100 µM (inactive) | > 100 | > 100 µM (inactive) | > 100 µM (inactive) | 23 µM (inactive) | 60.7 µM (inactive) | > 100 µM (inactive) |  |
| COc1ccc(OC)c(CNc2ccc(O)c(C(=O)NCCc3ccc(F)cc3)c2)c1 | 17.1 µM (inactive) | 19.7 µM (inactive) | 4.06 µM (inactive) | 16.4 µM (inactive) | 2.74 µM (inactive) | 15.8 µM (inactive) | 3.44 µM (inactive) | 15.7 µM (inactive) |  | 18 µM (inactive) | 11.1 µM (inactive) | 11.6 µM (inactive) | 17.3 µM (inactive) | 12.6 | 11.9 µM (inactive) | 9.71 µM (inactive) | 13.5 µM (inactive) |  | 19.5 µM (inactive) | 3.58 µM (inactive) |
| CC(NC(NC(C)C12CC3CC(CC(C3)C1)C2)=C(C(Cl)=C(Cl)Cl)[N+](=O)[O-])C12CC3CC(CC(C3)C1)C2 (configuration not stated) | 7.96 µM (inactive) | 11.3 µM (inactive) | 22.7 µM (inactive) | 36.1 µM (inactive) | 27.2 µM (inactive) | 20.9 µM (inactive) | 3.9 µM (inactive) | 17.6 µM (inactive) | 26.7 µM (inactive) | 4.62 µM (inactive) | 9.95 µM (inactive) | 21.8 µM (inactive) | 71.1 µM (inactive) | 18.7 | 3.38 µM (inactive) | 47.3 µM (inactive) | 14.5 µM (inactive) |  | 7.59 µM (inactive) | 23.4 µM (inactive) |
| c1ccc2c(c1)CCN2CCc1c[nH]c2ccccc12 | > 10 µM (inactive) | > 10 µM (inactive) | > 10 µM (inactive) |  | > 10 µM (inactive) | > 10 µM (inactive) | > 10 µM (inactive) | > 10 µM (inactive) | > 10 µM (inactive) | > 10 µM (inactive) | > 10 µM (inactive) | > 10 µM (inactive) | > 10 µM (inactive) | > 10 | > 10 µM (inactive) | > 10 µM (inactive) | > 10 µM (inactive) | > 10 µM (inactive) | > 10 µM (inactive) | > 10 µM (inactive) |
| O=C1/C(=C/c2ccc(Cl)cc2)CNC/C1=C\c1ccc(Cl)cc1 | 1.89 µM (inactive) |  | 2.71 µM (inactive) | 4.65 µM (inactive) | 2.82 µM (inactive) | 1.15 µM (inactive) | 0.495 µM (active) | 0.638 µM (active) | 6.08 µM (inactive) |  | 1.57 µM (inactive) | 1.51 µM (inactive) | 12.1 µM (inactive) | 1.16 | 0.782 µM (active) | 1.22 µM (inactive) |  |  | 2.59 µM (inactive) | 1.57 µM (inactive) |
